From patent publication US10597388B2, “Pyridazinone herbicides” (FMC CORPORATION, priority 2014, dated 2020)

Columns and labels:
Assay in all cases: Test C greenhouse herbicide test, pre- and postemergence
Format in all cases: in vivo
[1] = system: pigweed (Amaranthus retroflexus)
From the text: (§1) Seeds of plant species selected from blackgrass (Alopecurus myosuroides), ryegrass, Italian (Italian ryegrass, Lolium multiflorum), wheat (winter wheat, Triticum aestivum), galium (catchweed bedstraw, Galium aparine), corn (Zea mays), large crabgrass, large (large crabgrass, Digitaria sanguinalis), foxtail, giant (giant foxtail, Setaria faberii), johnsongrass (Sorghum halepense), lambsquarters (Chenopodium album), morningglory (Ipomoea coccinea), nutsedge, yellow (yellow nutsedge, Cyperus esculentus), pigweed (Amaranthus retroflexus), ragweed (common ragweed, Ambrosia elatior), soybean (Glycine max), barnyardgrass (Echinochloa crus-galli), oilseed rape (Brassica napus), waterhemp (common waterhemp, Amaranthus rudis), and velvetleaf (Abutilon theophrasti) were planted into a blend of loam soil and sand and treated preemergence with test chemicals formulated in a non-phytotoxic solvent mixture which included a surfactant.
(§2) At the same time, plants selected from these crop and weed species and also chickweed (common chickweed, Stellaria media), kochia (Kochia scoparia), and oat, wild (wild oat, Avena fatua), were planted in pots containing Redi-Earth® planting medium (Scotts Company, 14111 Scottslawn Road, Marysville, Ohio 43041) comprising spaghnum peat moss, vermiculite, wetting agent and starter nutrients and treated with postemergence applications of test chemicals formulated in the same manner. Plants ranged in height from 2 to 18 cm (1- to 4-leaf stage) for postemergence treatments. Treated plants and controls were maintained in a greenhouse for 13 to 15 d, after which time all species were compared to controls and visually evaluated. Plant response ratings, summarized in Table C, are based on a scale of 0 to 100 where 0 is no effect and 100 is complete control. A dash (-) response means no test result.

[2] = system: blackgrass (Alopecurus myosuroides)
From the text: as §1, §2

[3] = system: nutsedge, yellow (yellow nutsedge, Cyperus esculentus); conditions: Preemergence; for Plant response rating, Nutsedge, Yellow: scale 0 to 100, 0 is no effect, 100 is complete control; for Nutsedge, Yellow plant response rating: 250 g ai/ha, scale 0 to 100, 0 no effect, 100 complete control
From the text: as §1, §2

[4] = system: ryegrass, Italian (Italian ryegrass, Lolium multiflorum)
From the text: as §1, §2

corn (Zea mays) = system: corn (Zea mays)
From the text: as §1, §2

[5] = system: waterhemp (common waterhemp, Amaranthus rudis)
From the text: as §1, §2

[6] = system: foxtail, giant (giant foxtail, Setaria faberii)
From the text: as §1, §2

[7] = system: galium (catchweed bedstraw, Galium aparine)
From the text: as §1, §2

[8] = system: crabgrass, large (large crabgrass, Digitaria sanguinalis)
From the text: as §1, §2

[9] = system: velvetleaf (Abutilon theophrasti)
From the text: as §1, §2

soybean (Glycine max) = system: soybean (Glycine max)
From the text: as §1, §2

[10] = system: barnyardgrass (Echinochloa crus-galli)
From the text: as §1, §2

[11] = system: lambsquarters (Chenopodium album)
From the text: as §1, §2

[12] = system: morningglory (Ipomoea coccinea)
From the text: as §1, §2

[13] = system: wheat (winter wheat, Triticum aestivum)
From the text: as §1, §2

[14] = Preemergence, 31 g ai/ha, scale 0 to 100, 0 is no effect, 100 is complete control
[15] = Preemergence, 62 g ai/ha, scale 0 to 100, 0 is no effect, 100 is complete control
[16] = Preemergence, 125 g ai/ha, scale 0 to 100, 0 is no effect, 100 is complete control
[17] = Preemergence, 250 g ai/ha, scale 0 to 100, 0 no effect, 100 complete control
[18] = Postemergence, 31 g ai/ha, 0 to 100 scale (0 no effect, 100 complete control)
[19] = Postemergence, 125 g ai/ha, scale 0 to 100, 0 is no effect, 100 is complete control
[20] = Postemergence, 250 g ai/ha, scale 0 to 100, 0 no effect, 100 complete control, 13 to 15 d
[21] = postemergence, 62 g ai/ha, scale 0 to 100, 0 no effect, 100 complete control

CCC(=O)Oc1c(OC)nn(C)c(=O)c1-c1c(C)sc2ccc(Cl)cc12 [Compound 131]
Plant response rating, Pigweed [1, 14]: 60
Plant response rating, Pigweed [1, 15]: 100
Plant response rating, Pigweed [1, 16]: 100
Pigweed plant response rating [1, 17]: 100
Plant response rating, Blackgrass [2, 14]: 0
Plant response rating, Blackgrass [2, 15]: 40
Plant response rating, Blackgrass [2, 16]: 40
Blackgrass plant response rating [2, 17]: 90
Plant response rating, Nutsedge, Yellow ([3]; 31 g ai/ha): 10
Plant response rating, Nutsedge, Yellow ([3]; 62 g ai/ha): 35
Plant response rating, Nutsedge, Yellow ([3]; 125 g ai/ha): 65
Nutsedge, Yellow plant response rating [3]: 75
Plant response rating, Ryegrass, Italian [4, 14]: 10
Plant response rating, Ryegrass, Italian [4, 15]: 80
Plant response rating, Ryegrass, Italian [4, 16]: 95
Ryegrass, Italian plant response rating [4, 17]: 95
Plant response rating, Corn (corn (Zea mays); [14]): 0
Plant response rating, Corn (corn (Zea mays); [15]): 0
Plant response rating, Corn (corn (Zea mays); [16]): 5
Corn plant response rating (corn (Zea mays); [17]): 15
Plant response rating, Waterhemp [5, 14]: 95
Plant response rating, Waterhemp [5, 15]: 98
Plant response rating, Waterhemp [5, 16]: 98
Waterhemp plant response rating [5, 17]: 100
Plant response rating, Foxtail, Giant [6, 14]: 35
Plant response rating, Foxtail, Giant [6, 15]: 85
Plant response rating, Foxtail, Giant [6, 16]: 90
Foxtail, Giant plant response rating [6, 17]: 98
Plant response rating, Galium [7, 14]: 85
Plant response rating, Galium [7, 15]: 90
Plant response rating, Galium [7, 16]: 95
Galium plant response rating [7, 17]: 95
Plant response rating, Crabgrass, Large [8, 14]: 0
Plant response rating, Crabgrass, Large [8, 15]: 20
Plant response rating, Crabgrass, Large [8, 16]: 60
Crabgrass, Large plant response rating [8, 17]: 80
Plant response rating, Velvetleaf [9, 14]: 0
Plant response rating, Velvetleaf [9, 15]: 55
Plant response rating, Velvetleaf [9, 16]: 85
Velvetleaf plant response rating [9, 17]: 95
Plant response rating, Soybean (soybean (Glycine max); [14]): 0
Plant response rating, Soybean (soybean (Glycine max); [15]): 0
Plant response rating, Soybean (soybean (Glycine max); [16]): 0
Soybean plant response rating (soybean (Glycine max); [17]): 0
Plant response rating, Barnyardgrass [10, 14]: 0
Plant response rating, Barnyardgrass [10, 15]: 0
Plant response rating, Barnyardgrass [10, 16]: 10
Barnyardgrass plant response rating [10, 17]: 35
Plant response rating, Lambsquarters [11, 14]: 60
Plant response rating, Lambsquarters [11, 15]: 70
Plant response rating, Lambsquarters [11, 16]: 85
Lambsquarters plant response rating [11, 17]: 95
Plant response rating, Morningglory [12, 14]: 35
Plant response rating, Morningglory [12, 15]: 55
Plant response rating, Morningglory [12, 16]: 85
Morningglory plant response rating [12, 17]: 95
Plant response rating, Wheat [13, 14]: 0
Plant response rating, Wheat [13, 15]: 0
Plant response rating, Wheat [13, 16]: 20
Wheat plant response rating [13, 17]: 20

CCc1oc2ccc(C)cc2c1-c1c(O)c(C)nn(C)c1=O [Compound 10, 4-(2-ethyl-5-methyl-3-benzofuranyl)-5-hydroxy-2,6-dimethyl-3(2H)-pyridazinone]
Pigweed plant response rating [1, 18]: 55
Plant response rating, Pigweed [1, 19]: 70
Plant response rating, Pigweed [1, 20]: 95
Plant response rating, Pigweed [1, 14]: 0
Plant response rating, Pigweed [1, 15]: 0
Plant response rating, Pigweed [1, 16]: 10
Pigweed plant response rating [1, 17]: 30
Pigweed plant response rating [1, 21]: 60
Blackgrass plant response rating [2, 18]: 0
Plant response rating, Blackgrass [2, 19]: 10
Plant response rating, Blackgrass [2, 20]: 15
Plant response rating, Blackgrass [2, 14]: 0
Plant response rating, Blackgrass [2, 15]: 0
Plant response rating, Blackgrass [2, 16]: 0
Blackgrass plant response rating [2, 17]: 0
Blackgrass plant response rating [2, 21]: 0
Plant response rating, Nutsedge, Yellow ([3]; 31 g ai/ha): 0
Plant response rating, Nutsedge, Yellow ([3]; 62 g ai/ha): 0
Plant response rating, Nutsedge, Yellow ([3]; 125 g ai/ha): 0
Nutsedge, Yellow plant response rating [3]: 0
Ryegrass, Italian plant response rating [4, 18]: 5
Plant response rating, Ryegrass, Italian [4, 19]: 20
Plant response rating, Ryegrass, Italian [4, 20]: 55
Plant response rating, Ryegrass, Italian [4, 14]: 0
Plant response rating, Ryegrass, Italian [4, 15]: 0
Plant response rating, Ryegrass, Italian [4, 16]: 25
Ryegrass, Italian plant response rating [4, 17]: 80
Ryegrass, Italian plant response rating [4, 21]: 5
Corn plant response rating (corn (Zea mays); [18]): 0
Plant response rating, Corn (corn (Zea mays); [19]): 5
Plant response rating, Corn (corn (Zea mays); [20]): 5
Plant response rating, Corn (corn (Zea mays); [14]): 0
Plant response rating, Corn (corn (Zea mays); [15]): 0
Plant response rating, Corn (corn (Zea mays); [16]): 0
Corn plant response rating (corn (Zea mays); [17]): 5
Corn plant response rating (corn (Zea mays); [21]): 0
Waterhemp plant response rating [5, 18]: 40
Plant response rating, Waterhemp [5, 19]: 50
Plant response rating, Waterhemp [5, 20]: 90
Plant response rating, Waterhemp [5, 15]: 0
Plant response rating, Waterhemp [5, 16]: 100
Waterhemp plant response rating [5, 17]: 90
Waterhemp plant response rating [5, 21]: 45
Foxtail, Giant plant response rating [6, 18]: 70
Plant response rating, Foxtail, Giant [6, 19]: 50
Plant response rating, Foxtail, Giant [6, 20]: 90
Plant response rating, Foxtail, Giant [6, 14]: 0
Plant response rating, Foxtail, Giant [6, 15]: 0
Plant response rating, Foxtail, Giant [6, 16]: 0
Foxtail, Giant plant response rating [6, 17]: 0
Foxtail, Giant plant response rating [6, 21]: 60
Galium plant response rating [7, 18]: 5
Plant response rating, Galium [7, 19]: 70
Plant response rating, Galium [7, 20]: 85
Plant response rating, Galium [7, 14]: 0
Plant response rating, Galium [7, 15]: 5
Plant response rating, Galium [7, 16]: 5
Galium plant response rating [7, 17]: 45
Galium plant response rating [7, 21]: 50
Crabgrass, Large plant response rating [8, 18]: 10
Plant response rating, Crabgrass, Large [8, 19]: 65
Plant response rating, Crabgrass, Large [8, 20]: 75
Plant response rating, Crabgrass, Large [8, 14]: 0
Plant response rating, Crabgrass, Large [8, 15]: 0
Plant response rating, Crabgrass, Large [8, 16]: 0
Crabgrass, Large plant response rating [8, 17]: 0
Crabgrass, Large plant response rating [8, 21]: 30
Velvetleaf plant response rating [9, 18]: 40
Plant response rating, Velvetleaf [9, 19]: 40
Plant response rating, Velvetleaf [9, 20]: 70
Plant response rating, Velvetleaf [9, 15]: 0
Plant response rating, Velvetleaf [9, 16]: 10
Velvetleaf plant response rating [9, 17]: 50
Velvetleaf plant response rating [9, 21]: 45
Soybean plant response rating (soybean (Glycine max); [18]): 0
Plant response rating, Soybean (soybean (Glycine max); [19]): 0
Plant response rating, Soybean (soybean (Glycine max); [20]): 0
Plant response rating, Soybean (soybean (Glycine max); [15]): 0
Plant response rating, Soybean (soybean (Glycine max); [16]): 0
Soybean plant response rating (soybean (Glycine max); [17]): 0
Soybean plant response rating (soybean (Glycine max); [21]): 0
Barnyardgrass plant response rating [10, 18]: 35
Plant response rating, Barnyardgrass [10, 19]: 90
Plant response rating, Barnyardgrass [10, 20]: 98
Plant response rating, Barnyardgrass [10, 14]: 0
Plant response rating, Barnyardgrass [10, 15]: 5
Plant response rating, Barnyardgrass [10, 16]: 5
Barnyardgrass plant response rating [10, 17]: 5
Barnyardgrass plant response rating [10, 21]: 90
Lambsquarters plant response rating [11, 18]: 50
Plant response rating, Lambsquarters [11, 19]: 65
Plant response rating, Lambsquarters [11, 20]: 98
Plant response rating, Lambsquarters [11, 14]: 0
Plant response rating, Lambsquarters [11, 15]: 0
Lambsquarters plant response rating [11, 17]: 30
Lambsquarters plant response rating [11, 21]: 80
Morningglory plant response rating [12, 18]: 55
Plant response rating, Morningglory [12, 19]: 100
Plant response rating, Morningglory [12, 20]: 100
Plant response rating, Morningglory [12, 14]: 0
Plant response rating, Morningglory [12, 15]: 0
Plant response rating, Morningglory [12, 16]: 25
Morningglory plant response rating [12, 17]: 55
Morningglory plant response rating [12, 21]: 90
Wheat plant response rating [13, 18]: 0
Plant response rating, Wheat [13, 19]: 0
Plant response rating, Wheat [13, 20]: 0
Plant response rating, Wheat [13, 15]: 0
Plant response rating, Wheat [13, 16]: 0
Wheat plant response rating [13, 17]: 0
Wheat plant response rating [13, 21]: 0
